Test system: NOMO1
Assay: cell viability relative to DMSO control; higher = less cytotoxic
Conditions: 48 h
How it was run: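 Viability is a per-plate percentage relative to DMSO wells, with cell-free wells as background. CellTiter-Glo One luminescence was read after 48 h at 37°C on 1536-well plates (5 μl) of NOMO1 or SEM (500 cells/well) or P12-Ichikawa (1000 cells/well) leukemia cells. The cells had been adapted for at least four passages in each medium and pin-dosed with library compounds in DMSO from 47 μM to 0.79 nM in 11 threefold steps.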

[1] = HPLM + 10% dialyzed FBS, 0.000781 µM
[2] = HPLM + 10% dialyzed FBS, 0.00234 µM
[3] = HPLM + 10% dialyzed FBS, 0.00702 µM
[4] = HPLM + 10% dialyzed FBS, 0.0211 µM
[5] = HPLM + 10% dialyzed FBS, 0.0632 µM
[6] = HPLM + 10% dialyzed FBS, 0.19 µM
[7] = HPLM + 10% dialyzed FBS, 0.569 µM
[8] = HPLM + 10% dialyzed FBS, 1.71 µM
[9] = HPLM + 10% dialyzed FBS, 5.12 µM
[10] = HPLM + 10% dialyzed FBS, 15.4 µM
[11] = HPLM + 10% dialyzed FBS, 46.1 µM
[12] = RPMI 5 mM glucose + 10% FBS, 0.000781 µM
[13] = RPMI 5 mM glucose + 10% FBS, 0.00234 µM
[14] = RPMI 5 mM glucose + 10% FBS, 0.00702 µM
[15] = RPMI 5 mM glucose + 10% FBS, 0.0211 µM
[16] = RPMI 5 mM glucose + 10% FBS, 0.0632 µM
[17] = RPMI 5 mM glucose + 10% FBS, 0.19 µM
[18] = RPMI 5 mM glucose + 10% FBS, 0.569 µM
[19] = RPMI 5 mM glucose + 10% FBS, 1.71 µM
[20] = RPMI 5 mM glucose + 10% FBS, 5.12 µM
[21] = RPMI 5 mM glucose + 10% FBS, 15.4 µM
[22] = RPMI 5 mM glucose + 10% FBS, 46.1 µM
[23] = RPMI 5 mM glucose + 10% dialyzed FBS, 0.000781 µM
[24] = RPMI 5 mM glucose + 10% dialyzed FBS, 0.00234 µM
[25] = RPMI 5 mM glucose + 10% dialyzed FBS, 0.00702 µM
[26] = RPMI 5 mM glucose + 10% dialyzed FBS, 0.0211 µM
[27] = RPMI 5 mM glucose + 10% dialyzed FBS, 0.0632 µM
[28] = RPMI 5 mM glucose + 10% dialyzed FBS, 0.19 µM
[29] = RPMI 5 mM glucose + 10% dialyzed FBS, 0.569 µM
[30] = RPMI 5 mM glucose + 10% dialyzed FBS, 1.71 µM
[31] = RPMI 5 mM glucose + 10% dialyzed FBS, 5.12 µM
[32] = RPMI 5 mM glucose + 10% dialyzed FBS, 15.4 µM
[33] = RPMI 5 mM glucose + 10% dialyzed FBS, 46.1 µM

SMILES	cell viability [1]	cell viability [2]	cell viability [3]	cell viability [4]	cell viability [5]	cell viability [6]	cell viability [7]	cell viability [8]	cell viability [9]	cell viability [10]	cell viability [11]	cell viability [12]	cell viability [13]	cell viability [14]	cell viability [15]	cell viability [16]	cell viability [17]	cell viability [18]	cell viability [19]	cell viability [20]	cell viability [21]	cell viability [22]	cell viability [23]	cell viability [24]	cell viability [25]	cell viability [26]	cell viability [27]	cell viability [28]	cell viability [29]	cell viability [30]	cell viability [31]	cell viability [32]	cell viability [33]
Cc1cc2c(F)c(Oc3ncnn4cc(OC[C@@H](C)O)c(C)c34)ccc2[nH]1	107%	87.6%	103%	103%	97.5%	90.4%	99.2%	101%	98.4%	88.9%	69.6%	86.5%	103%	101%	105%	98.2%	98.1%	94.1%	88.6%	88.8%	97%	83.6%	88.5%	104%	102%	92%	90.3%	100%	98.7%	84.9%	109%	79.8%	67.1%
C[C@@H]1[C@H](O)[C@@H](C)/C=C/C=C/C=C/C=C/C=C/C=C/C=C/[C@H](O[C@@H]2O[C@H](C)[C@@H](O)[C@H](N)[C@@H]2O)C[C@@H]2O[C@](O)(C[C@@H](O)C[C@@H](O)[C@H](O)CC[C@@H](O)C[C@@H](O)CC(=O)O[C@H]1C)C[C@H](O)[C@H]2C(=O)O	113%	121%	126%	117%	114%	116%	124%	123%	152%	138%	133%	108%	124%	112%	114%	111%	115%	133%	119%	125%	118%	135%	–	–	–	–	–	–	–	–	–	–	–
COc1ccc(C(C)=O)c(O)c1	115%	114%	109%	121%	111%	93.7%	98%	45.9%	41.4%	23.9%	26.2%	116%	111%	119%	118%	116%	127%	112%	56.6%	64.8%	20.1%	22.6%	111%	115%	105%	105%	124%	129%	123%	75.6%	59.9%	25.7%	24.2%
CC(C)C(=O)Nc1ccc([N+](=O)[O-])c(C(F)(F)F)c1	118%	120%	118%	128%	140%	137%	44%	39.3%	39%	42.3%	41.3%	–	–	–	–	–	–	–	–	–	–	–	–	–	–	–	–	–	–	–	–	–	–
FC1=CC=C(SC/2=N/N3\C=N/C(=O)/C(=C3/C=C2)C4=C(Cl)C=CC=C4Cl)C(=C1)F	99%	108%	108%	114%	112%	118%	119%	107%	101%	99.2%	50.2%	98.8%	93.2%	104%	118%	104%	115%	98.3%	105%	95.3%	104%	43.7%	98.7%	114%	105%	103%	101%	106%	108%	110%	108%	99%	72.5%
OC1=CC2=C(C(=C1)O)C(=O)\C=C(/O2)C3=CC=CC=C3	106%	106%	103%	116%	109%	116%	108%	118%	121%	93.6%	20.2%	101%	97.8%	92.1%	97.5%	100%	108%	92.7%	96.1%	101%	105%	15.6%	91.9%	103%	106%	104%	115%	102%	115%	112%	98.9%	98.3%	27.6%
COC(=O)[C@@H]1[C@H]2C[C@H]3c4[nH]c5ccccc5c4CCN3C[C@@H]2CC[C@@H]1O	120%	127%	122%	131%	132%	128%	108%	41.2%	39.8%	44.5%	35.6%	–	–	–	–	–	–	–	–	–	–	–	–	–	–	–	–	–	–	–	–	–	–
CNc1nccc(-c2cccnc2Oc2cc(C(=O)Nc3cccc(C(F)(F)F)c3)ccc2C)n1	104%	111%	120%	135%	130%	147%	127%	117%	115%	82.7%	110%	115%	102%	112%	125%	120%	133%	130%	119%	112%	87.7%	98.2%	98%	105%	108%	116%	108%	134%	105%	125%	125%	78.2%	99.1%
CN(C)C1=CC=C(C=C1)C(C2=CC=C(C=C2)N(C)C)=C/3\C=C/C(/C=C3)=[N+](C)C	102%	114%	136%	132%	103%	26.6%	9.97%	4.17%	4.13%	1.55%	0.245%	113%	98.4%	101%	113%	107%	27.2%	6.73%	2.46%	2.87%	0.606%	-0.00921%	112%	101%	110%	100%	96.9%	33.1%	11.3%	5.56%	5.09%	1.49%	0.371%
CN1C[C@H]2c3ccccc3Oc3ccc(Cl)cc3[C@@H]2C1	78.1%	106%	93.5%	92.7%	85.6%	90%	106%	96%	90.5%	93.8%	82.1%	75.8%	93.6%	88.7%	90.4%	91.3%	83.3%	80.7%	88.2%	80.4%	87.3%	85.6%	85.8%	86.1%	85.4%	94.2%	87.4%	95.2%	85.2%	83.9%	93%	82.1%	85.3%
Cc1ccc([S+](=O)([O-])N[C@@H](Cc2ccccc2)C(=O)CCl)cc1	90.2%	100%	119%	119%	87.3%	112%	99.1%	107%	106%	101%	47.6%	91.8%	89.4%	96%	96.9%	97.9%	91.4%	90.3%	81%	95.1%	90.7%	71.1%	88.8%	99.6%	94.6%	94.6%	100%	85.2%	99.4%	108%	97.7%	85.1%	73.6%
CCOC(=O)C/1=C(O)/C(=O)N(CC2=CC=CC=C2)C1	95.4%	113%	129%	124%	110%	106%	103%	122%	114%	103%	95.6%	102%	113%	98.3%	99.2%	98.6%	99.5%	111%	95.9%	95.7%	95.7%	103%	102%	118%	110%	109%	110%	115%	105%	111%	91.2%	103%	95.1%
CCC[C@H]1C[C@H](C(=O)N[C@@H]([C@@H]2O[C@@H](SC)[C@@H](O)[C@@H](O)[C@H]2O)[C@H](C)Cl)N(C)C1	102%	117%	106%	119%	128%	121%	131%	118%	124%	137%	114%	119%	115%	108%	118%	112%	134%	123%	116%	129%	126%	143%	112%	117%	120%	113%	114%	119%	122%	109%	129%	127%	130%
COCCCN1CCC(NC(=O)c2cc(Cl)c(N)c3c2OCC3)CC1	116%	124%	127%	119%	147%	137%	133%	150%	142%	137%	110%	–	–	–	–	–	–	–	–	–	–	–	–	–	–	–	–	–	–	–	–	–	–
C[C@]1(c2nc3c(C(N)=O)cccc3[nH]2)CCCN1	70.8%	69.6%	84%	82.2%	80.8%	88.9%	84.2%	74.6%	67.1%	93%	31.4%	65.2%	80.4%	72.5%	79.5%	76.3%	76.3%	85.6%	72%	68.9%	81.3%	23%	62.8%	77%	76.8%	82.3%	87.5%	93.7%	89.6%	90.6%	73.1%	77.4%	26.1%

Reference: the supplement of paper PMC11451515
